{
  "source": "patent US10071960B1",
  "about": "“Enaminone-grafted trithiocarbonate with anticancer and antimicrobial activity” (KING SAUD UNIVERSITY, priority 2017, dated 2018)",
  "key": {"Bacillus subtilis": {"system": "Bacillus subtilis", "experiment": "In vitro antimicrobial activity (MIC, MBC)", "format": "cell-based", "details": "FIGS. 4 and 5", "method": "(§1) Biological activity of compound 3 as antimicrobial agents was performed according to (Lam et al. 2016). Lyophilized cultures of Streptococcus nutans ATCC 35668, Bacillus subtilis and Brevibacillus laterosporus Wild strains (Gram positive bacteria), Salmonella typhi Wild strain (Gram negative bacteria), Candid albicans ATCC 60193 (yeast), Cryptococcus neoformans Wild strain (yeast), Aspergillus fumigatus AUMC 8794 (mold), and Penicillium chrysogenum AUMC (mold) were grown aerobically on the appropriate medium and in incubating conditions before minimal inhibitory, minimal Bactericidal, and minimal fungicidal concentration testing (MIC, MBC, and MFC). […]\n(§2) The total count of microbes was counted by measurement of bacterial and yeast cells; and spores of mold using hemocytometer and account at 400×.\n(§3) The bacterial suspensions were prepared from bacterial cultures which gave an optical density reading of ˜0.9 at 620 nm. […]\n(§4) To determine MIC of the compound 3, a Mueller-Hinton broth and Potato dextrose broth were used for bacteria and fungi, respectively. […] After incubation, the microbial growth was detected in the wells by p-iodonitrotetrazolium violet (Sigma, USA) reagent. […] Data are expressed as mean±s.d. of the biological replicates and statistically analyzed using One-Way ANOVA analysis using Tukey test (P<0.05) (SPSS, 13.0)."}, "[1]": {"system": "Brevibacillus laterosporus Wild strain", "experiment": "In vitro antimicrobial activity (MIC, MBC)", "format": "cell-based", "details": "FIGS. 4 and 5", "method": "as §1, §2, §3, §4"}, "[2]": {"system": "Hepg2, LoVo, and MDA-MB-231 cell lines", "experiment": "MTT growth inhibition, all three tested human tumor cells", "format": "cell-based", "details": "48 hours, read-out: IC50 concentrations, range over all three tested human tumor cells", "method": "(§5) HepG2 (human hepatocarcinoma), LoVo (human colorectal adenocarcinoma) and MDA-MB-231 (human breast cancer) cancer cell lines were selected for the in vitro antiproliferative activity. Cells were seeded in 24-well plates at a density of 50,000 cells/well for 24 hours for adherent. After 24 hours, cells were treated with increasing concentrations of compound 3 or an equal volume of vehicle (DMSO) as a control and were incubated for 48 hours. 100 μL of MTT reagent (5 mg/ml) were added. The plates were incubated for 2 hours and absorbance was determined at 540 nm in an ELISA plate reader (Thermo, USA). Percentages of cell survival were calculated as follows: % cell survival=(absorbance of treated cells/absorbance of cells with vehicle solvent)×100. The 50% inhibitory concentration (IC50) was calculated from the dose-response curve obtained by plotting the percentage of cell survival versus the concentration of compound 3."}, "HepG2 Liver cancer cells": {"system": "HepG2 Liver cancer cells", "experiment": "MTT antiproliferative assay, HepG2", "format": "cell-based", "details": "Homo sapiens, 48 hours", "method": "as §5"}, "LoVo Colon cancer cells [3]": {"system": "LoVo Colon cancer cells", "experiment": "LDH release cytotoxicity assay, LoVo", "format": "cell-based, human", "details": "treated with IC50 for 48 hours; FIGS. 7 and 8A-8F", "method": "Lactate dehydrogenase (LDH) assay was performed to assess the LDH release into the media following compound 3 treatments (IC50) on HepG2, LoVo and MDA-MB-231 cells after 48 hours of incubation. LDH cytotoxicity assay was carried out using an in vitro toxicology assay kit (Sigma Aldrich Inc., USA), according to protocol in the user's manual. The amount of LDH released in culture media was measured at 490 nm using an ELISA plate reader (Thermo, USA)."}, "[4]": {"system": "MDA-MB-231 Breast Cancer cells", "experiment": "MTT antiproliferative assay, MDA-MB-231", "format": "cell-based", "details": "Homo sapiens, MDA-MB-231 cells, 48 hours", "method": "as §5"}, "[5]": {"system": "Cryptococcus neoformans Wild strain", "experiment": "In vitro antimicrobial activity (MIC, MFC)", "format": "cell-based", "details": "Cr. neformans; FIGS. 4 and 5", "method": "as §1, §2, §3, §4"}, "[6]": {"system": "Candida albicans ATCC 60193", "experiment": "In vitro antimicrobial activity (MIC, MFC)", "format": "cell-based", "details": "C. albicans; FIGS. 4 and 5", "method": "as §1, §2, §3, §4"}, "LoVo Colon cancer cells [7]": {"system": "LoVo Colon cancer cells", "experiment": "MTT antiproliferative assay, LoVo", "format": "cell-based", "details": "Homo sapiens, 48 hours", "method": "as §5"}},
  "data": [
    {"smiles": "CCOC(=O)C(=CN(C)C)SC(=S)SC(=CN(C)C)C(=O)OCC", "note": "(stereo in doubt) [compound 3, (Z)-ethyl 3-(dimethylamino)-2-(((((Z)-1-(dimethylamino)-3-ethoxy-3-oxoprop-1-en-2-yl)thio)carbonothioyl)thio)acrylate]", "values": [
      {"measurement": "MIC, MBC and MFC: susceptibility compared to other tested microorganisms", "setting": "Bacillus subtilis", "result": "resistant"},
      {"measurement": "MIC, MBC and MFC: susceptibility compared to other tested microorganisms", "setting": "[1]", "result": "resistant"},
      {"measurement": "IC50", "setting": "[2]", "result": "37.5 to 45", "unit": "µg/mL"},
      {"measurement": "IC50", "setting": "HepG2 Liver cancer cells", "result": 38, "unit": "µg/mL"},
      {"measurement": "cytotoxic effects (LDH release, morphology) compared between tumor cell lines", "setting": "LoVo Colon cancer cells [3]", "result": "more active"},
      {"measurement": "IC50", "setting": "[4]", "result": 45, "unit": "µg/mL"},
      {"measurement": "MIC, MBC and MFC: susceptibility compared to other tested microbes", "setting": "[5]", "result": "more susceptible"},
      {"measurement": "MIC, MBC and MFC: susceptibility compared to other tested microbes", "setting": "[6]", "result": "more susceptible"},
      {"measurement": "IC50", "setting": "LoVo Colon cancer cells [7]", "result": 37.5, "unit": "µg/mL"}
    ]}
  ]
}
